We go through 21 compounds from patent US11285156B2, “Substituted piperazines as KRAS G12C inhibitors” (Amgen Inc., priority 2018, dated 2022).

In one experiment the target is GDP-bound KRAS protein (aa 1-169), containing both G12C and C118A amino acid substitutions (Homo sapiens (Human), UniProt P01116, C118A/G12C). As to the kind of experiment: Coupled nucleotide exchange assay (SOS-mediated nucleotide exchange, AlphaScreen). In kind it is biochemical. The following applies: 5 min compound pre-incubation. A general note: In Alpha technology, singlet oxygen from a donor bead excites a nearby acceptor bead.
Sequence of GDP-bound KRAS protein (aa 1-169), containing both G12C and C118A amino acid substitutions (P01116 other isoform, or with tags, fused parts or gaps G12C/C118A): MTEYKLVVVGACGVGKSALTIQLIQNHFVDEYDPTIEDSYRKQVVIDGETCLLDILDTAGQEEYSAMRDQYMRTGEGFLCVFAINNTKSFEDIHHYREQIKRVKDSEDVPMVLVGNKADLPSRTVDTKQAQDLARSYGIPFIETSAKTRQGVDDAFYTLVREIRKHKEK
Take `C=CC(=O)N1C[C@H](C)N(c2nc(=O)n(-c3c(C)cc(CN(C)C)cc3C(C)C)c3nc(-c4ccccc4F)c(Cl)cc23)C[C@H]1C` (single isomer, unassigned) [Example 121-4]: the “Coupled exchange IC50 (5 min; μM)” value is 1.48 µM.

For `C=CC(=O)N1C[C@H](C)N(c2nc(=O)n(-c3c(C(C)C)cc(N4CCC4)nc3C(C)C)c3nc(-c4ccccc4F)c(Cl)cc23)C[C@H]1C` (single isomer, unassigned) [Example 182-1], the “Coupled exchange IC50 (5 min; μM)” value amounted to 0.14 µM.

The same experiment, now with this note: read-out: Coupled exchange IC50 (5 min; μM); 5 min compound pre-incubation.
`C=CC(=O)N1C[C@H](C)N(c2nc(=O)n(-c3c(C)ccnc3C(C)C)c3nc(-c4c(C)cccc4C)c(F)cc23)C[C@H]1C` (atropisomer, axis not shown; (M)) [Example 94-9, (M)-7-(2,6-Dimethylphenyl)-4-[(2S,5R)-2,5-dimethyl-4-prop-2-enoyl-piperazin-1-yl]-6-fluoro-1-(2-isopropyl-4-methyl-3-pyridyl)pyrido [2,3-d]pyrimidin-2-one]: the IC50 worked out at 0.469 µM.

For the compound `C=CC(=O)N1C[C@H](C)N(c2nc(=O)n(-c3c(C)ccnc3C(C)C)c3nc(-c4ccccc4F)c(C)nc23)C[C@H]1C` (single isomer, unassigned) [Example 225-1], the IC50 stood at 7.62 µM.

Turning to `C=CC(=O)N1C[C@H](C)N(c2nc(=O)n(-c3c(CN4CCCC4)cccc3C(C)C)c3nc(-c4ccccc4F)c(Cl)cc23)C[C@H]1C` (single isomer, unassigned) [Example 80-10-1], the IC50 worked out at 2.04 µM.

Consider `C=CC(=O)N1C[C@H](C)N(C2=NCC(=O)N(CC(C)(C)C)c3nc(-c4ccccc4F)c(Cl)cc32)C[C@H]1C` [Example 220, 5-((2S,5R)-4-Acryloyl-2,5-dimethylpiperazin-1-yl)-7-chloro-8-(2-fluorophenyl)-1-neopentyl-1,3-dihydro-2H-pyrido[2,3-e][1,4]diazepin-2-one], for which the IC50 amounted to 250 µM.

For the compound `C=CC(=O)N1C[C@H](C)N(c2nc(=O)n(-c3c(C)ccnc3C(C)C)c3nc(-c4ncccc4OC)c(Cl)cc23)C[C@H]1C` [96-2], the IC50 worked out at 1.22 µM.

On to `C=CC(=O)N1C[C@H](C)N(c2nc(=O)n(-c3c(CC)ncnc3C(C)C)c3nc(-c4ccccc4C)c(Cl)cc23)C[C@H]1C` (single isomer, unassigned) [Example 109-2-2], for which the IC50 turned out to be 0.226 µM.

`C=CC(=O)N1C[C@H](C)N(c2nc(=O)n(-c3c(C)ccnc3C(C)C)c3nc(-c4ccccc4NC(=O)C(C)(C)C)c(Cl)cc23)C[C@H]1C` (atropisomer, axis not shown; (M)) [Example 92-35, (M)-N-[2-[6-Chloro-4-[(2S,5R)-2,5-dimethyl-4-prop-2-enoyl-piperazin-1-yl]-1-(2-isopropyl-4-methyl-3-pyridyl)-2-oxo-pyrido[2,3-d]pyrimidin-7-yl]phenyl]-2,2-dimethyl-propanamide]: the IC50 is 0.758 µM.

`C=CC(=O)N1C[C@H](C)N(c2nc(=O)n(-c3c(C)ccnc3C(C)C)c3nc(CC(C)(C)C)c(Cl)cc23)C[C@H]1C` (atropisomer, axis not shown; (M)) [Example 95-2, (M)-6-chloro-4-[(2S,5R)-2,5-dimethyl-4-prop-2-enoyl-piperazin-1-yl]-7-(2,2-dimethylpropyl)-1-(2-isopropyl-4-methyl-3-pyridyl)pyrido [2,3-d]pyrimidin-2-one]: the IC50 came out at 1.04 µM.

`C=CC(=O)N1C[C@H](C)N(c2nc(=O)n(-c3c(C)ccnc3C(C)C)c3nc(-c4ccccc4N)c(F)cc23)C[C@H]1C` (atropisomer, axis not shown; (M)) [Example 94-20, (M)-7-(2-Aminophenyl)-4-[(2S,5R)-2,5-dimethyl-4-prop-2-enoyl-piperazin-1-yl]-6-fluoro-1-(2-isopropyl-4-methyl-3-pyridyl)pyrido [2,3-d]pyrimidin-2-one]: the IC50 is 0.452 µM.

With `C=CC(=O)N1CCN(c2nc(=O)n(CC(C)(C)C)c3nc(Cl)c(Cl)cc23)CC1` [Example 100-5, 6,7-Dichloro-1-(2,2-dimethylpropyl)-4-(4-prop-2-enoylpiperazin-1-yl)pyrido[2,3-d]pyrimidin-2-one], the IC50 came to 58.3 µM.

Take `C=CC(=O)N1C[C@H](C)N(c2nc(=O)n(-c3c(N(C)C)ccnc3C(C)C)c3nc(-c4c(F)cccc4NC(=O)C4CC4)c(Cl)cc23)C[C@H]1C` (single isomer, unassigned) [Example 122-3-1]: the half-maximal inhibitory concentration (IC50) was determined as 6.82 µM.

As to `C=CC(=O)N1C[C@H](C)N(c2nc(=O)n(-c3c(C)ccnc3C(C)C)c3nc(-c4cc(OC)cc5ccccc45)c(F)cc23)C[C@H]1C` (atropisomer, axis not shown; (M)) [Example 94-21, (M)-4-[(2S,5R)-2,5-Dimethyl-4-prop-2-enoyl-piperazin-1-yl]-6-fluoro-1-(2-isopropyl-4-methyl-3-pyridyl)-7-(3-methoxy-1-naphthyl)pyrido[2,3-d]pyrimidin-2-one], the IC50 was 32.4 µM.

As for `C=CC(=O)N1CCN(c2nc(=O)n(-c3c(C)ccnc3C(C)C)c3nc(-c4ccccc4F)c(Cl)cc23)[C@@H]2C[C@@H]21` (atropisomer, axis not shown; (M)) [Example 222-1, (M)-4-((1R,6S)-5-Acryloyl-2,5-diazabicyclo[4.1.0]heptan-2-yl)-6-chloro-7-(2-fluorophenyl)-1-(2-isopropyl-4-methylpyridin-3-yl)pyrido[2,3-d]pyrimidin-2(1H)-one], the IC50 is 0.95 µM.

Regarding `C=CC(=O)N1CCN(c2nc(=O)n(CC(C)(C)C#N)c3nc(-c4ccccc4F)c(Cl)cc23)CC1` [Example 106-10, 3-[6-Chloro-7-(2-fluorophenyl)-2-oxo-4-(4-prop-2-enoylpiperazin-1-yl)pyrido[2,3-d]pyrimidin-1-yl]-2,2-dimethyl-propanenitrile], the IC50 worked out at 12.1 µM.

For `C=CC(=O)N1[C@H](C)CN(c2nc(=O)n(-c3c(C)cc(N)nc3C(C)C)c3nc(-c4c(O)cccc4F)c(F)cc23)C[C@@H]1C` (single isomer, unassigned) [Example 123-1], the IC50 was determined as 1.25 µM.

Consider `C=CC(=O)N1C[C@@H]2CC[C@H]1CN2c1nc(=O)n(-c2c(C)ccnc2C(C)C)c2nc(-c3ccccc3F)c(Cl)cc12` (atropisomer, axis not shown; (M)) [Example 79-11, (M)-6-Chloro-7-(2-fluorophenyl)-1-(2-isopropyl-4-methyl-3-pyridyl)-4-[(1S,4S)-5-prop-2-enoyl-2,5-diazabicyclo[2.2.2]octan-2-yl]pyrido[2,3-d]pyrimidin-2-one], for which the IC50 was 26.7 µM.

As to `C=CC(=O)N1C[C@H](C)N(c2nc(=O)n(-c3c(C)nc(C)nc3C(C)C)c3nc(-c4ccccc4F)c(C)cc23)C[C@H]1C` [Example 195, 4-((2S,5R)-4-Acryloyl-2,5-dimethylpiperazin-1-yl)-7-(2-fluorophenyl)-1-(4-isopropyl-2,6-dimethylpyrimidin-5-yl)-6-methylpyrido[2,3-d]pyrimidin-2(1H)-one], the IC50 is 0.488 µM.

On to `C=CC(=O)N1C[C@H](C)N(c2nc(=O)n3c4nc(c(Cl)cc24)-c2ccccc2C/C=C\Cc2ccccc2-3)C[C@H]1C` (single isomer, unassigned) [Example 146-3-3], for which the IC50 came to 57.3 µM.

Take `C=CC(=O)N1CCN(c2nc(=O)n(-c3c(C)ccnc3C(C)C)c3nc(-c4c(O)cccc4F)c(F)cc23)C(C)C1C` (single isomer, unassigned) [Example 124-16-2, 4-[trans-2,3-dimethyl-4-prop-2-enoyl-piperazin-1-yl]-6-fluoro-7-(2-fluoro-6-hydroxy-phenyl)-1-(2-isopropyl-4-methyl-3-pyridyl)pyrido[2,3-d]pyrimidin-2-one]: the half-inhibitory concentration (IC50) is 7.37 µM.

The IC50 is the concentration that gives 50% inhibition.
